The record followed here is ChEMBL document CHEMBL1122656, “Synthesis and antiviral evaluation of carbocyclic analogues of ribofuranosides of 2-amino-6-substituted-purines and of 2-amino-6-substituted-8-azapurines” (1984).

Type in all cases: functional
A short description of assay [1]: Cytotoxicity to cancer cells (KB cells) in culture was determined and the effective dose that causes 50 % cytotoxicity was reported. Particulars: Homo sapiens, Cancer cell lines; read-out: ED50 (the source's name).
The test system of assay [2] is Mus musculus. Kind of assay: In vivo efficacy against L1210 leukemic cells, inoculated intraperitoneally in mice at schedule - q.d. 1-9. Dose 100 mg/kg. The settings on record: route intraperitoneal.
Assay [3] relates to HEp-2. The assay can be described thus: In vitro inhibition of cytopathogenicity induced by HF strain of Herpes Simplex Virus (HSV-1) replicating in human epidermoid carcinoma no.2 (H.Ep-2) cells.
Assay [4] concerns Mus musculus. Kind of assay: In vivo efficacy against L1210 leukemic cells, inoculated intraperitoneally in mice at schedule - q.d. 1-9. Dose 50 mg/kg. The settings on record: route intraperitoneal.
For assay [5], the system named is Mus musculus. Kind of assay: In vivo efficacy against L1210 leukemic cells, inoculated intraperitoneally in mice at schedule - q.d. 1-9. Dose 200 mg/kg.*-toxic. The settings on record: route intraperitoneal.
For assay [6], the system named is Mus musculus. Kind of assay: In vivo efficacy against L1210 leukemic cells, inoculated intraperitoneally in mice at schedule - q.d. 1-9. Dose 25 mg/kg. Particulars: route intraperitoneal.
The test system of assay [7] is HEp-2. The assay can be described thus: In vitro inhibition of cytopathogenicity induced by Lederle Chorioallantoic strain of vaccinia virus replicating in human epidermoid carcinoma. (In general: Damage to the host cells serves as the signal in cytopathic effect assays.)
The subject of assay [8] is Mus musculus. The assay can be described thus: In vivo efficacy against L1210 leukemic cells, inoculated intraperitoneally in mice at schedule - q.d. 1-9. Dose 100 mg/kg*-toxic. The settings on record: route intraperitoneal.
The subject of assay [9] is Mus musculus. Kind of assay: In vivo efficacy against L1210 leukemic cells, inoculated intraperitoneally in mice at schedule - day 1. Dose 400 mg/kg. Particulars: route intraperitoneal.
Assay [10] deals with HEp-2. The assay can be described thus: In vitro inhibition of cytopathogenicity induced by Lederle Chorioallantoic strain of vaccinia virus replicating in human epidermoid carcinoma no.2 (H.Ep-2) cells.
Assay [11] concerns Mus musculus. Kind of assay: In vivo efficacy against L1210 leukemic cells, inoculated intraperitoneally in mice at schedule - q.d. 1-9. Dose 400 mg/kg. The settings on record: route intraperitoneal.
Assay [12] has as its system Mus musculus. The assay can be described thus: In vivo efficacy against L1210 leukemic cells, inoculated intraperitoneally in mice at schedule - q.d. 1-9. Dose 38 mg/kg*-toxic. Particulars: route intraperitoneal.
Assay [13] concerns Mus musculus. Kind of assay: In vivo efficacy against L1210 leukemic cells, inoculated intraperitoneally in mice at schedule - q.d. 1,5,9. Dose 38 mg/kg. Particulars: route intraperitoneal.
The test system of assay [14] is Mus musculus. The assay can be described thus: In vivo efficacy against L1210 leukemic cells, inoculated intraperitoneally in mice at schedule - q.d. 1. Dose 75 mg/kg*-Diiference in weight change(T-C)by day 5 was -5.6g at 150 mg/kg &[…] at 75 mg/kg.
In assay [15] the test system is Mus musculus. The assay can be described thus: In vivo efficacy against L1210 leukemic cells, inoculated intraperitoneally in mice at schedule - q.d. 1,5,9. Dose 19 mg/kg. The settings on record: route intraperitoneal.
For assay [16], the system named is Mus musculus. Kind of assay: In vivo efficacy against L1210 leukemic cells, inoculated intraperitoneally in mice at schedule - q.d. 1,5,9. Dose 75 mg/kg*-Diiference in weight change(T-C)by day 5 was -5.6g at 150 mg/kg &[…] at 75 mg/kg.
For assay [17], the system named is Mus musculus. The assay can be described thus: In vivo efficacy against L1210 leukemic cells, inoculated intraperitoneally in mice at schedule - q.d. 1-9. Dose 19 mg/kg*-toxic. Particulars: route intraperitoneal.
Assay [18] concerns Mus musculus. Kind of assay: In vivo efficacy against L1210 leukemic cells, inoculated intraperitoneally in mice at schedule - q.d. 1 Dose 150 mg/kg.*-Diiference in weight change(T-C)by day 5 was -5.6g at 150 mg/kg &[…] at 75 mg/kg.
Assay [19] has as its system Mus musculus. Kind of assay: In vivo efficacy against L1210 leukemic cells, inoculated intraperitoneally in mice at schedule - q.d. 1-9. Dose 9 mg/kg. Particulars: route intraperitoneal.

Values after ≈ are worked out from the molar mass of the structure shown.

In the case of `CSc1nc(N)nc2c1nnn2C1CC(CO)C(O)C1O` (stereo not given), in [1], the EC50 was more than 100 µg/mL. Also, in [2], the T/C turned out to be 94%. The same molecule displayed a Virus rating in [3] of 0 VR.
For `Nc1nc(N)c2ncn(C3CC(CO)C(O)C3O)c2n1` (stereo not given), the T/C worked out at 89% in [4], 67% in [5], 102% in assay [6] and 70% in assay [8]. Further, the EC50 in assay [1] came to 19 µg/mL (≈ 67.8 µM). Further, the MIC in assay [7] stood at 2.3 µg/mL (≈ 8.21 µM); in [3] it was 0.3 µg/mL (≈ 1.07 µM). The Virus rating in assay [7] stood at 3.8 VR; in assay [3], 4.6 VR.
On to `Nc1nc(Cl)c2nnn(C3CC(CO)C(O)C3O)c2n1` (stereo not given), for which the EC50 in assay [1] was 8 µg/mL (≈ 26.6 µM). In addition, the Virus rating in [7] came to 0.6 VR. The molecule further registered a T/C in [9] of 111%. Further, in assay [3], the MIC stood at 81 µg/mL (≈ 269 µM) and the Virus rating came out at 0.9 VR.
For the molecule `Nc1nc(Cl)c2ncn(C3CC(CO)C(O)C3O)c2n1` (stereo not given), the T/C in [4] is 101%; in assay [5], 67%; in assay [8], 85%; in assay [9], 104%. For the same molecule, in [1], the EC50 was more than 100 µg/mL. The figures for the MIC in [3] and in assay [10] were 10 µg/mL (≈ 33.4 µM) and 20 µg/mL (≈ 66.7 µM), respectively. Moreover, the Virus rating in assay [3] is recorded as 1.7 VR; in assay [10] it was 1.2 VR.
`Nc1nc(N)c2nnn(C3CC(CO)C(O)C3O)c2n1` (stereo not given): the EC50 in assay [1] was more than 100 µg/mL. The molecule further came in with a T/C in assay [9] of 97%. Besides, in assay [3], the MIC stood at 100 µg/mL (≈ 356 µM) and the Virus rating came out at 1.4 VR.
Consider `Nc1nc(O)c2nnn(C3CC(CO)C(O)C3O)c2n1` (stereo not given), for which, in assay [1], the EC50 was more than 100 µg/mL. The molecule further returned a T/C in assay [9] of 109%. In assay [3], this molecule yielded a Virus rating of 0 VR.
Turning to `CNc1nc(N)nc2c1ncn2C1CC(CO)C(O)C1O` (stereo not given), the EC50 in assay [1] stood at 18 µg/mL (≈ 61.2 µM). Further, in assay [3], the MIC came out at 320 µg/mL (≈ 1090 µM) and the Virus rating came out at 1.3 VR.
As for `Nc1nc(S)c2ncn(C3CC(CO)C(O)C3O)c2n1` (stereo not given), the EC50 in assay [1] came out at 50 µg/mL (≈ 168 µM). The same molecule had a T/C in assay [11] of 99%. This molecule also gave a Virus rating in assay [3] of 0 VR.
As to `CSc1nc(N)nc2c1ncn2C1CC(CO)C(O)C1O` (stereo not given), the EC50 in assay [1] was more than 100 µg/mL. Besides, the T/C in [2] was 108%. This molecule came in with a Virus rating in assay [3] of 0.1 VR.
With `Nc1nc(O)c2ncn(C3CC(CO)C(O)C3O)c2n1` (stereo not given), the T/C is 71% in assay [12]; 92% in [13]; 88% in assay [14]; 94% in assay [15]; 70% in [16]; 83% in [17]. Further, the figures for the T/C in assay [18] and in [19] were 75% and 101%, respectively. The EC50 in assay [1] was more than 100 µg/mL. For the same molecule, the Virus rating in assay [7] and in assay [3] was 0 VR in each case.
In assay [3], `Nc1ncnc2c1ncn2[C@@H]1O[C@H](CO)[C@@H](O)[C@@H]1O` [VIDARABINE] registered an MIC of 10 µg/mL (≈ 37.4 µM) and a Virus rating of 2.2 VR.

A word on the T/C: it is the ratio of treated to control.
